Experimental data: patent publication EP4745134A1 (Jiangsu Yahong Meditech Co., Ltd., priority 2023, dated 2025)

Key:
PRMT5-MTA = PRMT5-MTA (Homo sapiens, UniProt O14744); assay: Enzymatic inhibitory activity against PRMT5-MTA (AlphaScreen); type: biochemical; conditions: read-out: IC50
In short: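 PRMT5/[…] (1 nM) was preincubated for 30 min at room temperature with 1 µM […] and 2.5 µM SAM, then exposed to compound (10-point, 3-fold from 1000 nM) for 15 min at 23 °C. Histone H4 substrate (5 nM) was added and reacted for 45 min at 23 °C. Symmetric dimethyl-R3 H4 was detected by AlphaScreen and IC50 calculated.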

HCT116-WT cells = assay: Inhibitory activity against cell proliferation (CellTiter Glo, 6 days), HCT116-WT; type: cell-based; conditions: 144 h, HCT116-WT cells, 6 days, CellTiter Glo; read-out: HCT116-WT IC50
In short: (§1)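 Following overnight attachment of 250 cells per well in McCoy's 5A medium with 10% FBS, compounds spanning 8 concentrations (4-fold, top 10000 nM) were applied for 6 days. Growth inhibition IC50 was derived from luminescent ATP signal.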

HCT116 MTAP KO cells = assay: Inhibitory activity against cell proliferation (CellTiter Glo, 6 days), HCT116 MTAP KO; type: cell-based; conditions: for IC50: Homo sapiens, HCT-116, 144 h, HCT116 MTAP KO cells, 6 days, CellTiter Glo, read-out: HCT116 MTAP KO IC50; for Selectivity HCT 116-WT/ HCT116 MTAP KO: ratio of IC50 HCT116-WT / HCT116 MTAP KO
In short: as §1

Chain of PRMT5-MTA (O14744 whole entry): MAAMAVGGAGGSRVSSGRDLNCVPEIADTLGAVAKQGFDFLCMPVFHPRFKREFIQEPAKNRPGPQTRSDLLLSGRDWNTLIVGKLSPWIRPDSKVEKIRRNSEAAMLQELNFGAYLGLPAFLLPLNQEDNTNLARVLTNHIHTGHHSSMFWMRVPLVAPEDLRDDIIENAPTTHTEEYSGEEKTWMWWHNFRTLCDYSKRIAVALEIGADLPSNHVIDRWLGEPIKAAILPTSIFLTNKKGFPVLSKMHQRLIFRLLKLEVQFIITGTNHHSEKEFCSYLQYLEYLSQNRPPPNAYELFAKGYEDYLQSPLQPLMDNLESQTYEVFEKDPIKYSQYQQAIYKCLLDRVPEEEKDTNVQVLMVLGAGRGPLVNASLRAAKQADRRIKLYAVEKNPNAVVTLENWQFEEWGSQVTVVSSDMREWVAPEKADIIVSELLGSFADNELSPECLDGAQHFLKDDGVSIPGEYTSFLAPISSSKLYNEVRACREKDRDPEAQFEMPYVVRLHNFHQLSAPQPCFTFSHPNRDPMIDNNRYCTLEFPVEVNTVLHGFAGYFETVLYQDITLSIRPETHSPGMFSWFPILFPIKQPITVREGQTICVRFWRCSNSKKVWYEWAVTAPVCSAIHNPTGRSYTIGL
Chain of PRMT5-MTA (Q9BQA1 whole entry partner): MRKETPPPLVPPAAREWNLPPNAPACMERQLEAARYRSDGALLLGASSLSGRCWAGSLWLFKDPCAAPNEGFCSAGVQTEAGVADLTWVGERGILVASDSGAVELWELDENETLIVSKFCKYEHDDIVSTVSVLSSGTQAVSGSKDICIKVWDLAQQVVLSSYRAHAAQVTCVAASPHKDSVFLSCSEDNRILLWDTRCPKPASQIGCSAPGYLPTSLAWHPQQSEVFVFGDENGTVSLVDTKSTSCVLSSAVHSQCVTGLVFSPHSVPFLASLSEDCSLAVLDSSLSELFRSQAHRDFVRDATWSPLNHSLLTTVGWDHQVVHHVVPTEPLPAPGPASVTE

SMILES | IC50 (PRMT5-MTA) [µM] | IC50 (HCT116-WT cells) [µM] | IC50 (HCT116 MTAP KO cells) [µM] | Selectivity HCT 116-WT/ HCT116 MTAP KO (HCT116 MTAP KO cells)
Cc1cc2cc(C(=O)N(Cc3ccc(Br)cn3)N(C)c3ncccn3)ccc2nc1N [Example 67, 2-amino-N-((5-bromopyridin-2-yl)methyl)-N',3-dimethyl-N'-(pyrimidin-2-yl)quin oline-6-carbohydrazide] | 0.0015 | 1.6 | 0.04 | 40.08
Cc1cc2cc(C(=O)N(Cc3ccc(C(F)(F)F)cn3)N(C)c3ncc(Cl)cn3)ccc2nc1N [Example 69, 2-amino-N'-(5-chloropyrimidin-2-yl)-N', 3-dimethyl-N-((5-(trifluoromethyl)pyridin-2-yl)methyl)quinoline-6-carbohydrazide] | 0.0024 | 3.16 | 0.216 | 14.63
Cc1cc2cc(C(=O)N(Cc3ccc(Br)cc3F)N(C)c3nccc4nccnc34)ccc2nc1N [Example 72, 2-amino-N-(4-bromo-2-fluorobenzyl)-N', 3-dimethyl-N'-(pyrido[3,4-b]pyrazin-5-yl)quinoline-6-carbohydrazide] | 0.0027 | 1.61 | 0.092 | 17.50
Cc1cc2cc(C(=O)N(Cc3ccc(Br)cn3)N(C)c3nccc4nccnc34)ccc2nc1N [Example 73, 2-amino-N-((5-bromopyridin-2-yl)methyl)-N',3-dimethyl-N'-(pyrido[3,4-b]pyrazin-5-yl)quinoline-6-carbohydrazide] | 0.0025 | 1.2 | 0.04 | 29.88
Cc1cc2cc(C(=O)N(Cc3ccc(C(F)(F)F)cn3)N(C)c3ccccc3)ccc2nc1N [Example 75, 2-amino-N',3-dimethyl-N'-phenyl-N-((5-(trifluoromethyl)pyridin-2-yl)methyl)quinoline-6-carbohydrazide] | 0.0031 | 0.901 | 0.08 | 11.26
COc1ccnc(N(C)N(Cc2ccc(C(F)(F)F)cn2)C(=O)c2ccc3nc(N)c(C)cc3c2)n1 [Example 76, 2-amino-N'-(4-methoxypyrimidin-2-yl)-N',3-dimethyl-N-((5-(trifluoromethyl)pyridin-2-yl)methyl)quinoline-6-carbohydrazide] | 0.0016 | 2.15 | 0.098 | 21.94
CN(c1ncccn1)N(Cc1ccc(C(F)(F)F)cn1)C(=O)c1ccc2nc(N)c3ccncc3c2c1 [Example 78, 5-amino-N'-methyl-N'-(pyrimidin-2-yl)-N-((5-(trifluoromethyl)pyridin-2-yl)methyl)benzo[c][2,6]naphthyridine-9-carbohydrazide] | 0.002 | 0.169 | 0.014 | 12.07
Cc1cc2cc(C(=O)N(Cc3ccc(C(F)(F)F)cn3)N(C)c3ncc4ncccc4n3)ccc2nc1N [Example 80, 2-amino-N',3-dimethyl-N'-(pyrido[3,2-d]pyrimidin-2-yl)-N-((5-(trifluoromethyl)pyridin-2-yl)methyl)quinoline-6-carbohydrazide] | 0.0019 | 1.87 | 0.132 | 14.18
Cc1cc2cc(C(=O)N(Cc3ccc(Br)cn3)N(c3ncccn3)C3CC3)ccc2nc1N [Example 82, 2-amino-N-((5-bromopyridin-2-yl)methyl)-N'-cyclopropyl-3-methyl-N'-(pyrimidin-2-yl)quinoline-6-carbohydrazide] | 0.0022 | 0.282 | 0.016 | 17.63
Cc1cc2cc(C(=O)N(Cc3ccc(C(F)(F)F)cn3)N(c3ncccn3)C3CCC3)ccc2nc1N [Example 83, 2-amino-N'-cyclobutyl-3-methyl-N'-(pyrimidin-2-yl)-N-((5-(trifluoromethyl)pyridin-2-yl)methyl)quinoline-6-carbohydrazide] | 0.0045 | 1.93 | 0.134 | 14.39
Cc1cc2cc(C(=O)N(Cc3ccc(Br)cc3F)N(C)c3ncccn3)ccc2nc1N [Example 84, 2-amino-N-(4-bromo-2-fluorobenzyl)-N', 3-dimethyl-N'-(pyrimidin-2-yl)quinoline-6-carbohydrazide] | 0.0034 | 1.63 | 0.058 | 28.17
Cc1cc2cc(C(=O)N(Cc3ccc(C(F)(F)F)cn3)N(C)c3cccc(C(F)(F)F)n3)ccc2nc1N [Example 88, 2-amino-N',3-dimethyl-N'-(6-(trifluoromethyl)pyridin-2-yl)-N-((5-(trifluoromethyl)pyridin-2-yl)methyl)quinoline-6-carbohydrazide] | 0.0025 | 2.03 | 0.176 | 11.56
Cc1cc2cc(C(=O)N(Cc3ccc(C(F)(F)F)cc3F)N(C)c3ncccn3)ccc2nc1N [Example 90, 2-amino-N-(2-fluoro-4-(trifluoromethyl)benzyl)-N',3-dimethyl-N'-(pyrimidin-2-yl) quinoline-6-carbohydrazide] | 0.0045 | 2.17 | 0.098 | 22.13
Cc1cc2cc(C(=O)N(Cc3ccc(C(F)(F)F)cn3)N(C)c3nccc4cccnc34)ccc2nc1N [Example 91, 2-amino-N',3-dimethyl-N'-(1,7-naphthyridin-8-yl)-N-((5-(trifluoromethyl)pyridin-2-yl)methyl)quinoline-6-carbohydrazide] | 0.0029 | 1.7 | 0.043 | 39.42
Cc1cc2cc(C(=O)N(Cc3ccc(C(F)(F)F)cn3)N(C)c3ncc4ccsc4n3)ccc2nc1N [Example 92, 2-amino-N',3-dimethyl-N'-(thieno[2,3-d]pyrimidin-2-yl)-N-((5-(trifluoromethyl)pyridin-2-yl)methyl)quinoline-6-carbohydrazide] | 0.0021 | 0.569 | 0.019 | 29.95
Cc1cc2cc(C(=O)N(Cc3ccc(C(F)(F)F)cn3)N(C)c3ncccc3OC(F)F)ccc2nc1N [Example 93, 2-amino-N'-(3-(difluoromethoxy)pyridin-2-yl)-N',3-dimethyl-N-((5-(trifluoromethyl)pyridin-2-yl)methyl)quinoline-6-carbohydrazide] | 0.0014 | 0.612 | 0.02 | 30.60
Cc1cc2cc(C(=O)N(Cc3ccc(C#N)cn3)N(C)c3ncccn3)ccc2nc1N [Example 94, 2-amino-N-((5-cyanopyridin-2-yl)methyl)-N',3-dimethyl-N'-(pyrimidin-2-yl) quinoline-6-carbohydrazide] | 0.0023 | 3.07 | 0.13 | 23.60
Cc1cc2cc(C(=O)N(Cc3ccc(C(F)(F)F)cn3)N(C)c3ncc(F)cn3)ccc2nc1N [Example 95, 2-amino-N'-(5-fluoropyrimidin-2-yl)-N',3-dimethyl-N-((5-(trifluoromethyl)pyridin-2-yl)methyl)quinoline-6-carbohydrazide] | 0.0021 | 2.46 | 0.07 | 35.14
CCN(C(=O)c1cc2c(cc1F)nc(N)c1cnn(C)c12)N(C)c1ccc(F)cn1 [Example 97, 4-amino-N-ethyl-7-fluoro-N'-(5-fluoropyridin-2-yl)-N',1-dimethyl-1H-pyrazolo[4,3-c]quinoline-8-carbohydrazide] | 0.0051 | > 10 | 0.246 | –
Cc1cc2cc(C(=O)N(Cc3ccc(C(F)(F)F)cn3)N(C)c3ncc(C(F)(F)F)cc3F)ccc2nc1N [Example 102, 2-amino-N'-(3-fluoro-5-(trifluoromethyl)pyridin-2-yl)-N',3-dimethyl-N-((5-(trifluoromethyl)pyridin-2-yl)methyl)quinoline-6-carbohydrazide] | 0.0017 | 3.55 | 0.348 | 10.19
Cc1cc2cc(C(=O)N(Cc3cc4ccccc4cn3)N(C)c3ncccn3)ccc2nc1N [Example 104, 2-amino-N-(isoquinolin-3-ylmethyl)-N',3-dimethyl-N'-(pyrimidin-2-yl)quinoline-6-carbohydrazide] | 0.0034 | 1.54 | 0.067 | 22.94
Cc1cc2cc(C(=O)N(Cc3ccc(C(F)(F)F)cn3)N(C)c3nccc4nccnc34)ccc2nc1N [Example 107, 2-amino-N',3-dimethyl-N'-(pyrido[3,4-b]pyrazin-5-yl)-N-((5-(trifluoromethyl)pyridin-2-yl)methyl)quinoline-6-carbohydrazide] | 0.0025 | 1.62 | 0.046 | 35.15
Cc1cc2cc(C(=O)N(Cc3ccc(C(F)(F)F)cn3)N(C)c3nccc4ncccc34)ccc2nc1N [Example 108, 2-amino-N',3-dimethyl-N'-(1,6-naphthyridin-5-yl)-N-((5-(trifluoromethyl)pyridin-2-yl)methyl)quinoline-6-carbohydrazide] | 0.0019 | 3.42 | 0.141 | 24.26
